Measured values from paper PMC4751996 (Journal of medicinal chemistry, 2015).
Residues, ends and D or L forms follow the SMILES beside them.

How the values were obtained:
[1] = system: MDA-MB-231 and HCT116 cell lines; assay: Growth inhibition screen, 3 day exposure, relative DNA content; details: 72 h; for inhibition at 1 µM: read-out: Drug Effect (avg) (1 μM); for inhibition at 10 µM: read-out: Drug Effect (avg) (10 μM)
hRRM1 [2] = biological target: T1, hRRM1 (Homo sapiens, UniProt P23921); assay: Tryptophan fluorescence quenching of hRRM1 at fixed ligand concentration; details: ligand 50 μM; hRRM1 0.1 mg/mL; excitation 295 nm
T1 sequence (P23921 1-792): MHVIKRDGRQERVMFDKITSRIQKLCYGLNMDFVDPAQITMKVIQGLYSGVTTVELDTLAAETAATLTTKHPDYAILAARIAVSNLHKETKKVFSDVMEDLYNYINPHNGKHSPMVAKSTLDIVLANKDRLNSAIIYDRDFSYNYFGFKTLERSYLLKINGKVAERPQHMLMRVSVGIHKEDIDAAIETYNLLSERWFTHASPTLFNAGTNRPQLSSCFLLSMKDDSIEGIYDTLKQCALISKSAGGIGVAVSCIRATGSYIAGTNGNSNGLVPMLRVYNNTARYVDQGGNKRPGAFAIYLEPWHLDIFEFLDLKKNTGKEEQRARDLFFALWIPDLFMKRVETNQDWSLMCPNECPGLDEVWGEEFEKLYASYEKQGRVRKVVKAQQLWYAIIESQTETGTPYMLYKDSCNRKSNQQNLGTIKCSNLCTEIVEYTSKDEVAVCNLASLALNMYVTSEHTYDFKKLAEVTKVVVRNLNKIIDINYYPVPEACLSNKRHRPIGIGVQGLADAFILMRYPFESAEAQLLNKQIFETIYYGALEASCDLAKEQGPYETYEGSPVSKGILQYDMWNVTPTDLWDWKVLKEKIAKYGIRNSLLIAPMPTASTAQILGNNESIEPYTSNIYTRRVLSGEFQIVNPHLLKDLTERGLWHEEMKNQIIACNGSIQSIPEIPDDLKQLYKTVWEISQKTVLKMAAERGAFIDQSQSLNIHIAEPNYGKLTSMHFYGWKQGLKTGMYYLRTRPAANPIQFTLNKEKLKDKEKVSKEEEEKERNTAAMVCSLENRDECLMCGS

hRRM1 [3] = biological target: T1, hRRM1; assay: Gel filtration chromatography of hRRM1 oligomeric state; details: 50 μM dATP alone

| SMILES | inhibition at 1 µM [1] | inhibition at 10 µM [1] | % Fluorescence quenching (hRRM1 [2]) | hexamer to dimer ratio based on integration of the peaks (hRRM1 [3]) |
| --- | --- | --- | --- | --- |
| CCCCCCCCCCCCCCCC(=O)N[C@@H](CCCCN)C(=O)N[C@@H](CCCCN)C(=O)OC [Compound 10] | -21.9% | -8.9% |  |  |
| CC(C)=CCC/C(C)=C/CNC(=O)CNC(c1ccc[nH]1)C(F)(F)F (stereo not shown) [Compound 184612] |  |  | No tryptophan fluorescence quenching |  |
| CCCOc1ccc(C(=O)OCCN(CC)CC)cc1NS(=O)(=O)/C=C/c1ccccc1 [Compound 6] | -3.3% | 4.3% |  |  |
| CCOC(=O)C(NC(=O)CN[C@H]1CCCc2sccc21)C(=O)OCC [Compound 2] | -19.9% | 53.1% |  |  |
| OC(COc1ccc(OCC(O)CN2CCN(C3c4ccccc4-c4ccccc43)CC2)cc1)CN1CCN(C2c3ccccc3-c3ccccc32)CC1 (stereo not shown) [Compound 1] | -39.6% | 88% |  |  |
| CCC(C)(C)c1ccc(OCCCCNC(=O)c2cc(Oc3ccc([N+](=O)[O-])cc3)c3ccccc3c2O)c(C(C)(C)CC)c1 [Compound 5] | 3.8% | 39.8% |  |  |
| CCOC(=O)C[C@@H](CC(=O)NCCN[C@H](C)c1ccc(O)c(C(=O)OC)c1)OC(C)=O [Compound 9] | 9.8% | 9.6% |  |  |
| CC(NCCCCCO)c1cc(OCc2ccccc2)cc(OCc2ccccc2)c1 (stereo not shown) [Compound 8] | -7.6% | 3.6% |  |  |
| CC(C)C[C@H](NC(=O)[C@@H]1CCCN1C(=O)[C@H](Cc1cnc[nH]1)NC(=O)[C@@H](NC(=O)[C@H](Cc1ccc(O)cc1)NC(=O)[C@@H](NC(=O)[C@@H](N)CCCNC(=N)N)C(C)C)C(C)C)C(=O)O [Compound 100207] (H-RVYVHPL-OH) |  |  | No tryptophan fluorescence quenching |  |
| CCCCCCCCCCCCCCNC(=O)[C@@H](N)CCN [Compound 3] | 7.2% | 69% |  |  |
| Nc1ncnc2c1ncn2[C@H]1C[C@H](O)[C@@H](COP(=O)(O)OP(=O)(O)OP(=O)(O)O)O1 [dATP, deoxyadenosine 5′-triphosphate] |  |  |  | approximately 3 fold |
